From patent publication US9493511B2, “Cyclosporin analogs” (Allergan, Inc., priority 2010, dated 2016)
Structures can show the parent of a compound that is named as a salt. Where two headings read alike, the source gives them in different places. Square brackets hold non-standard residues; d marks the D form. Peptide text beside a SMILES is read from it. * marks the point of attachment. NMe(2-epi-Bmt) = C/C=C/C[C@@H](C)[C@@H](O)[C@@H](NC)C(=O)O; Ethyl(2-morpholino) = C1CN(CC*)CCO1; Ethyl(2-guanidino) = N=C(N)NCC*; Ala(3-yl) = N[C@@H](C*)C(=O)O; NMeL = CN[C@@H](CC(C)C)C(=O)O; dNMeL = CN[C@H](CC(C)C)C(=O)O; dNMeV = CN[C@@H](C(=O)O)C(C)C; dNMeC = CN[C@H](CS)C(=O)O; dAbu = CC[C@@H](N)C(=O)O; Et2NCH2CH2 = CCN(CC)CC*; CH2CH2COOH = O=C(O)CC*; X3 = c1cc(CC*)ccn1; X5 = CN1CCC(*)CC1; X6 = COC(=O)CC*; X1 = COC(=O)C*; X4 = CC(C)NCC*; X2 = CCCCC*

Legend:
[1] = test system: Spleen cells from C57BL/6 (responder) and BALB/c (stimulator) mice; assay: Mixed lymphocyte reaction (MLR) assay; type: cell-based, mouse
human recombinant Cyp A = human recombinant Cyp A (Homo sapiens, UniProt P62937); assay: biochemical
Calcineurin = Calcineurin (Homo sapiens, UniProt P63098+Q08209); assay: biochemical

human recombinant Cyp A, sequence (P62937 whole entry): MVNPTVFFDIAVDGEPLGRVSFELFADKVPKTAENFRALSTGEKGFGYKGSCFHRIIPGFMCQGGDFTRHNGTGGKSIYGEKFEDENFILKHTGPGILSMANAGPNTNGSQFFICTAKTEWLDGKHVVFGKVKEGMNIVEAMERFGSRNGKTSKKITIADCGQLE

Compound | IC50 ([1]; Mus musculus, read-out: MLR nM) [nM] | Ki (human recombinant Cyp A) [nM] | IC50 (Calcineurin) [nM] | IC50 ([1]; mouse spleen cells, five days, 3H-thymidine proliferation, read-out: MLR) [nM]
C/C=C/C[C@@H](C)[C@@H](O)[C@@H]1C(=O)N[C@H](CC)C(=O)N(C)[C@H](CSCCN(CC)CC)C(=O)N(C)[C@@H](CC(C)C)C(=O)N[C@H](C(C)C)C(=O)N(C)[C@H](CC(C)C)C(=O)N[C@H](C)C(=O)N[C@@H](C)C(=O)N(C)[C@H](CC(C)C)C(=O)N(C)[C@H](CC(C)C)C(=O)N(C)[C@H](C(C)C)C(=O)N1C [Example 2, [(S)-2-Diethylaminoethylthiomethyl-Sar]^3 cyclosporin A] (cyclo(A[dNMeL][dNMeL][dNMeV][NMe(2-epi-Bmt)][dAbu][dNMeC](Et2NCH2CH2)[NMeL][dV][dNMeL][dA])) | 3500 | 2.4 | 3600 | –
C/C=C/C[C@@H](C)[C@@H](O)[C@@H]1C(=O)N[C@H](CC)C(=O)N(C)[C@H](CSCCC(=O)OC)C(=O)N(C)[C@@H](CC(C)C)C(=O)N[C@H](C(C)C)C(=O)N(C)[C@H](CC(C)C)C(=O)N[C@H](C)C(=O)N[C@@H](C)C(=O)N(C)[C@H](CC(C)C)C(=O)N(C)[C@H](CC(C)C)C(=O)N(C)[C@H](C(C)C)C(=O)N1C [Example 12, [(S)-Carbomethoxyethylthiomethyl-Sar]^3 cyclosporin A] (cyclo(A[dNMeL][dNMeL][dNMeV][NMe(2-epi-Bmt)][dAbu][dNMeC](X6)[NMeL][dV][dNMeL][dA])) | – | 2.7 | 9100 | –
C/C=C/C[C@@H](C)[C@@H](O)[C@@H]1C(=O)N[C@H](CC)C(=O)N(C)[C@H](CSCCc2ccncc2)C(=O)N(C)[C@@H](CC(C)C)C(=O)N[C@H](C(C)C)C(=O)N(C)[C@H](CC(C)C)C(=O)N[C@H](C)C(=O)N[C@@H](C)C(=O)N(C)[C@H](CC(C)C)C(=O)N(C)[C@H](CC(C)C)C(=O)N(C)[C@H](C(C)C)C(=O)N1C [Example 3, [(S)-2-(4-pyridyl)ethylthiomethyl-Sar]^3 cyclosporin A] (cyclo(A[dNMeL][dNMeL][dNMeV][NMe(2-epi-Bmt)][dAbu][dNMeC](X3)[NMeL][dV][dNMeL][dA])) | 2000 | 4.3 | 11800 | –
C/C=C/C[C@@H](C)[C@@H](O)[C@@H]1C(=O)N[C@H](CC)C(=O)N(C)[C@H](CSCC(=O)OC)C(=O)N(C)[C@@H](CC(C)C)C(=O)N[C@H](C(C)C)C(=O)N(C)[C@H](CC(C)C)C(=O)N[C@H](C)C(=O)N[C@@H](C)C(=O)N(C)[C@H](CC(C)C)C(=O)N(C)[C@H](CC(C)C)C(=O)N(C)[C@H](C(C)C)C(=O)N1C [Example 11, [(S)-Carbomethoxymethylthiomethyl-Sar]^3 cyclosporin A] (cyclo(A[dNMeL][dNMeL][dNMeV][NMe(2-epi-Bmt)][dAbu][dNMeC](X1)[NMeL][dV][dNMeL][dA])) | 19500 | 2.1 | 3900 | –
C/C=C/C[C@@H](C)[C@@H](O)[C@@H]1C(=O)N[C@H](CC)C(=O)N(C)[C@H](CSC2CCN(C)CC2)C(=O)N(C)[C@@H](CC(C)C)C(=O)N[C@H](C(C)C)C(=O)N(C)[C@H](CC(C)C)C(=O)N[C@H](C)C(=O)N[C@@H](C)C(=O)N(C)[C@H](CC(C)C)C(=O)N(C)[C@H](CC(C)C)C(=O)N(C)[C@H](C(C)C)C(=O)N1C [Example 9] (cyclo(A[dNMeL][dNMeL][dNMeV][NMe(2-epi-Bmt)][dAbu][dNMeC](X5)[NMeL][dV][dNMeL][dA])) | 3800 | 4.8 | 3300 | –
C/C=C/C[C@@H](C)[C@@H](O)[C@@H]1C(=O)N[C@H](CC)C(=O)N(C)[C@H](CSCCCCC)C(=O)N(C)[C@@H](CC(C)C)C(=O)N[C@H](C(C)C)C(=O)N(C)[C@H](CC(C)C)C(=O)N[C@H](C)C(=O)N[C@@H](C)C(=O)N(C)[C@H](CC(C)C)C(=O)N(C)[C@H](CC(C)C)C(=O)N(C)[C@H](C(C)C)C(=O)N1C [Example 5, [(S)-Pentylthiomethyl-Sar]^3 cyclosporin A] (cyclo(A[dNMeL][dNMeL][dNMeV][NMe(2-epi-Bmt)][dAbu][dNMeC](X2)[NMeL][dV][dNMeL][dA])) | 2700 | 2.3 | > 10000 | –
C/C=C/C[C@@H](C)[C@@H](O)[C@@H]1C(=O)N[C@H](CC)C(=O)N(C)[C@H](CSC[C@H](N)C(=O)O)C(=O)N(C)[C@@H](CC(C)C)C(=O)N[C@H](C(C)C)C(=O)N(C)[C@H](CC(C)C)C(=O)N[C@H](C)C(=O)N[C@@H](C)C(=O)N(C)[C@H](CC(C)C)C(=O)N(C)[C@H](CC(C)C)C(=O)N(C)[C@H](C(C)C)C(=O)N1C [Example 14, [(S)-{(R)-2-Amino-2-carbohydroxy-ethyl}thiomethyl-Sar]^3 cyclosporin A] (cyclo(A[dNMeL][dNMeL][dNMeV][NMe(2-epi-Bmt)][dAbu][dNMeC](Ala(3-yl))[NMeL][dV][dNMeL][dA])) | – | – | 7400 | –
C/C=C/C[C@@H](C)[C@@H](O)[C@@H]1C(=O)N[C@H](CC)C(=O)N(C)[C@H](CSCCNC(C)C)C(=O)N(C)[C@@H](CC(C)C)C(=O)N[C@H](C(C)C)C(=O)N(C)[C@H](CC(C)C)C(=O)N[C@H](C)C(=O)N[C@@H](C)C(=O)N(C)[C@H](CC(C)C)C(=O)N(C)[C@H](CC(C)C)C(=O)N(C)[C@H](C(C)C)C(=O)N1C [Example 18, [(S)-2-Isopropylaminoethylthiomethyl-Sar]^3 cyclosporin A] (cyclo(A[dNMeL][dNMeL][dNMeV][NMe(2-epi-Bmt)][dAbu][dNMeC](X4)[NMeL][dV][dNMeL][dA])) | – | 5.2 | 4600 | 3300
C/C=C/C[C@@H](C)[C@@H](O)[C@@H]1C(=O)N[C@H](CC)C(=O)N(C)[C@H](CSCCN2CCOCC2)C(=O)N(C)[C@@H](CC(C)C)C(=O)N[C@H](C(C)C)C(=O)N(C)[C@H](CC(C)C)C(=O)N[C@H](C)C(=O)N[C@@H](C)C(=O)N(C)[C@H](CC(C)C)C(=O)N(C)[C@H](CC(C)C)C(=O)N(C)[C@H](C(C)C)C(=O)N1C [Example 10, [(S)-2-(Morpholino)ethylthiomethyl-Sar]^3 cyclosporin A] (cyclo(A[dNMeL][dNMeL][dNMeV][NMe(2-epi-Bmt)][dAbu][dNMeC](Ethyl(2-morpholino))[NMeL][dV][dNMeL][dA])) | – | 3.9 | 4200 | –
C/C=C/C[C@@H](C)[C@@H](O)[C@@H]1C(=O)N[C@H](CC)C(=O)N(C)[C@H](CSC)C(=O)N(C)[C@@H](CC(C)C)C(=O)N[C@H](C(C)C)C(=O)N(C)[C@H](CC(C)C)C(=O)N[C@H](C)C(=O)N[C@@H](C)C(=O)N(C)[C@H](CC(C)C)C(=O)N(C)[C@H](CC(C)C)C(=O)N(C)[C@H](C(C)C)C(=O)N1C [Example 4, [(S)-Methylthiomethyl-Sar]^3 cyclosporin A] (cyclo(A[dNMeL][dNMeL][dNMeV][NMe(2-epi-Bmt)][dAbu][dNMeC](Me)[NMeL][dV][dNMeL][dA])) | – | 6.9 | 2200 | –
C/C=C/C[C@@H](C)[C@@H](O)[C@@H]1C(=O)N[C@H](CC)C(=O)N(C)[C@H](CSC(C)(C)[C@@H](N)C(=O)OC)C(=O)N(C)[C@@H](CC(C)C)C(=O)N[C@H](C(C)C)C(=O)N(C)[C@H](CC(C)C)C(=O)N[C@H](C)C(=O)N[C@@H](C)C(=O)N(C)[C@H](CC(C)C)C(=O)N(C)[C@H](CC(C)C)C(=O)N(C)[C@H](C(C)C)C(=O)N1C [Example 13, [(S)-{(S)-2-Amino-2-carbomethoxy-1,1-dimethyl-ethyl}thiomethyl-Sar]^3 cyclosporin A] | – | 9.3 | 4100 | –
C/C=C/C[C@@H](C)[C@@H](O)[C@@H]1C(=O)N[C@H](CC)C(=O)N(C)[C@H](CSCCC(=O)O)C(=O)N(C)[C@@H](CC(C)C)C(=O)N[C@H](C(C)C)C(=O)N(C)[C@H](CC(C)C)C(=O)N[C@H](C)C(=O)N[C@@H](C)C(=O)N(C)[C@H](CC(C)C)C(=O)N(C)[C@H](CC(C)C)C(=O)N(C)[C@H](C(C)C)C(=O)N1C [Example 17, [(S)-Carbohydroxyethylthiomethyl-Sar]^3 cyclosporin A] (cyclo(A[dNMeL][dNMeL][dNMeV][NMe(2-epi-Bmt)][dAbu][dNMeC](CH2CH2COOH)[NMeL][dV][dNMeL][dA])) | – | 2.8 | 17000 | –
C/C=C/C[C@@H](C)[C@@H](O)[C@@H]1C(=O)N[C@H](CC)C(=O)N(C)[C@H](CSC(C)(C)[C@@H](N)C(=O)O)C(=O)N(C)[C@@H](CC(C)C)C(=O)N[C@H](C(C)C)C(=O)N(C)[C@H](CC(C)C)C(=O)N[C@H](C)C(=O)N[C@@H](C)C(=O)N(C)[C@H](CC(C)C)C(=O)N(C)[C@H](CC(C)C)C(=O)N(C)[C@H](C(C)C)C(=O)N1C [Example 16, [(S)-{(S)-2-Amino-2-carbohydroxy-1,1-dimethyl-ethyl}thiomethyl-Sar]^3 cyclosporin A] | – | 5.8 | 2700 | –
C/C=C/C[C@@H](C)[C@@H](O)[C@@H]1C(=O)N[C@H](CC)C(=O)N(C)[C@H](CSCCNC(=N)N)C(=O)N(C)[C@@H](CC(C)C)C(=O)N[C@H](C(C)C)C(=O)N(C)[C@H](CC(C)C)C(=O)N[C@H](C)C(=O)N[C@@H](C)C(=O)N(C)[C@H](CC(C)C)C(=O)N(C)[C@H](CC(C)C)C(=O)N(C)[C@H](C(C)C)C(=O)N1C [Example 19, [(S)-2-Guanidinoethyl-1-sulfanylmethyl-Sar]^3 cyclosporin A hydrochloride] (cyclo(A[dNMeL][dNMeL][dNMeV][NMe(2-epi-Bmt)][dAbu][dNMeC](Ethyl(2-guanidino))[NMeL][dV][dNMeL][dA])) | – | 6.8 | 3200 | –
